Values of other authors in US20070135395A1, “Novel method for the preparation of intermediates useful for the synthesis fo vitamin d analogues” (Leo Pharma A/S, priority 2004, published 2007).

System: epidermal keratinocytes
Conditions: cited: Castelijins et al., Acta Derm. Venereol. 79, 11, 1999

C=C1/C(=C\C=C2/CCC[C@]3(C)[C@@H]([C@H](C)/C=C/[C@@H](O)C4CC4)CC[C@@H]23)C[C@@H](O)C[C@@H]1O [Calcipotriol, (5Z, 7E, 22E, 24S)-24-cyclopropyl-9,10-secochola-5,7,10(19),22-tetraene-1α-3β-24-triol]
activity in inhibiting undesirable proliferation of epidermal keratinocytes: strong activity
